{"source": "patent US20040266755A1", "about": "“Prodrugs of 1-(1-hydroxy-5-isoquinolinesulfonyl) homopiperazine” (Schering Aktiengesellschaft, priority 2003, published 2004)", "origin": "cited, not measured here", "system": "Rho-kinase", "conditions": "compared with fasudil; Shimokawa et al. (1999) Cardiovas. Res. 43:1138-1141", "data": [{"compound": "O=S(=O)(c1cccc2c(O)nccc12)N1CCCNCC1", "note": "[Hydroxyfasudil, 1-(1-hydroxy-5-isoquinolinesulfonyl) homopiperazine]", "values": [{"measurement": "specificity of inhibitory effect on Rho-kinase", "value": "more specific inhibitory effect on Rho-kinase than fasudil"}]}]}
